The source of these data is patent US20250382331A1, “Carrier Peptide Fragment and Use Thereof” (TOAGOSEI CO., LTD., priority 2022, published 2025).

Primed or numbered codes have the meaning given here. FAM = 5(6)-carboxyfluorescein; FAM″ = C-terminal FAM dye

In the assay the test system is NSC-34 cells. The assay is described as follows: Evaluation on cell membrane permeability by flow cytometry. As to conditions: 10 μM construct (additive), 0.5% DMSO, 20 hours incubation, flow cytometer FL2. Format: cell-based, mouse. The method, then:
As the eukaryotic cells, NSC-34 cells (mouse motor neuron-like hybrid cell line) were used and the cell membrane permeability of the constructs 1 to 4 was analyzed. In Examples 1 to 4, the prepared samples 1 to 4 were used, respectively, and in Example 5, a FAM solution was used.
The NSC-34 cells were cultured in 10% fetal bovine serum (FBS)-containing Dulbecco's modified Eagle's medium (DMEM (Cat No. 044-29765, manufactured by FUJIFILM Wako Pure Chemical Corporation)), which is a normal culture medium.
The NSC-34 cells that adhered to a culture plate were cleaned with PBS and then, a 0.25%-trypsin/EDTA solution was added thereto, and incubation was performed for three minutes at 37° C. After the incubation, the aforementioned 10% FBS-containing DMEM was added to deactivate trypsin and then, five-minute centrifugal separation was performed at 150×g to precipitate the cells. After the supernatant generated by the centrifugal separation was removed, the 10% FBS-containing DMEM was added to the precipitate (cell pellet) to prepare a cell suspension of about 2×10^5 cells/mL. The cell suspension was added by 1 mL to a well of a commercially available six-hole (well) plate (manufactured by AGC TECHNO GLASS Co., Ltd.) so as to seed the cell (about 2×10^5 cells/well). In addition, the 2 mM sample solution 1 was diluted with the 10% FBS-containing DMEM to prepare the sample solution 1 in which the concentration of the sample 1 was 20 μM. Then, 1 mL of the 20 μM sample solution 1 was added to the well (that is, so that the concentration of the sample 1 became 10 μM and the DMSO concentration became 0.5% in the culture solution in the well). After that, the cell was incubated for 20 hours at 37° C. under a 5% CO2 condition.
After the 20-hour incubation, the culture supernatant was removed from the well and the cells in the well were cleaned twice with 1 mL of PBS. Next, 200 μL of the 0.25% trypsin/EDTA solution was added to the well and the incubation was performed for three minutes at 37° C. After the incubation, 400 μL of the 10% FBS-containing DMEM was added to the well to deactivate the trypsin. Subsequently, the cell suspension in the well was transferred to a tube and the cells were collected. After that, 600 μL of PBS was added further to the well to clean the well. Then, PBS in the well was transferred to the tube, so that the cells remaining in the well were collected in the tube. This tube was subjected to five-minute centrifugal separation at 4° C. under a condition of 210×g. After the centrifugal separation, the supernatant was removed and the precipitate (cell pellet) was suspended (cleaned) with 1 mL of PBS, which was followed by the centrifugal separation under the same condition as that described above. After this operation was repeated twice, the supernatant was removed and thus, the cells (cell pellet) cultured in a culture medium containing the sample 1 were obtained.
Regarding the obtained cells (cell pellet), the cell membrane permeability of the sample 1 was analyzed using a flow cytometer. […]
Using the aforementioned flow cytometer, gating based on forward scatter (FSC) and side scatter (SSC) was performed to set a gate about a cell group to be analyzed, and the fluorescence intensity was measured about the cell group in this gate. […] The fluorescence intensity was measured using a fluorescence detector FL2 of the flow cytometer (optimum detection wavelength around 543 nm) capable of detecting the fluorescence wavelength of FAM. […]
For orientation: A flow cytometer gives signals particle by particle.

On to “Ac-KKRTLRKSNSRKKR-FAM (Ac-KKRTLRKSNSRKKR-{FAM″}) [Example 1]”, for which the “MFI (median fluorescence intensity)” value amounted to 11.2. As to “Ac-KKRTLRKSSNRKKR-FAM (Ac-KKRTLRKSSNRKKR-{FAM″}) [Example 2]”, the “MFI (median fluorescence intensity)” value is listed as 12.9. As for “Ac-KKRTLRKNSNRKKR-FAM (Ac-KKRTLRKNSNRKKR-{FAM}) [Example 4]”, the figure is 16.7; as for “5(6)-carboxyfluorescein [Example 5, reference compound]”, 8.15; as for “Ac-KKRTLRKSNNRKKR-FAM (Ac-KKRTLRKSNNRKKR-{FAM}) [Example 3]”, 13.6.
